We go through four molecules from publication PMC8528214 (RSC Medicinal Chemistry, 2021).

Where only a bound is given, the exact number is not on record here.

One data set concerns collagenase H (ColH). Conditions: cited from earlier work; for ColH inhibitory activity: tested in their thiocarbamate form.
The test system of data set [1] is NDM-1-expressing K. pneumoniae (T2301). Description: Growth inhibition assay. Conditions: imipenem alone at 8 μg mL−1 (0.5× MIC).
The target in the next data set is T1, MMP-2 (Homo sapiens, UniProt P08253).
T1 sequence (P08253 110-660): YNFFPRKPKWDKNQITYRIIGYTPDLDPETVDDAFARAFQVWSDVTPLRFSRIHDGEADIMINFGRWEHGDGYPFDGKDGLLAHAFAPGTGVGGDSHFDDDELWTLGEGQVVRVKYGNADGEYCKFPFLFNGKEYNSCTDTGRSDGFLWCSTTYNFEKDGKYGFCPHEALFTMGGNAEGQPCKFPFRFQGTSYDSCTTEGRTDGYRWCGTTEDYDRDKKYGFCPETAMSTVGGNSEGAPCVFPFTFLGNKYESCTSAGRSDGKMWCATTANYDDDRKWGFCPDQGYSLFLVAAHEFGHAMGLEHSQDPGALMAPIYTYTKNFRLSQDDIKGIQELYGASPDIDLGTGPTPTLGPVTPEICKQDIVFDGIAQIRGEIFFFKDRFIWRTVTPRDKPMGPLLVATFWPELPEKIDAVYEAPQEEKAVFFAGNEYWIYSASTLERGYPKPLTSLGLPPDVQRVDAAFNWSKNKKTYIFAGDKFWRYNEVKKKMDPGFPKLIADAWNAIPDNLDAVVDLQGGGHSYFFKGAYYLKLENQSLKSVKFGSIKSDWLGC
Put plainly: MMP in vitro inhibition assay, MMP-2. The class given is biochemical.

A further data set has as its system A549. Particulars: at 100 μM; cited from earlier work.
The target of another data set is T2, HDAC-8 (Homo sapiens, UniProt Q9BY41).
T2 sequence (Q9BY41 1-377): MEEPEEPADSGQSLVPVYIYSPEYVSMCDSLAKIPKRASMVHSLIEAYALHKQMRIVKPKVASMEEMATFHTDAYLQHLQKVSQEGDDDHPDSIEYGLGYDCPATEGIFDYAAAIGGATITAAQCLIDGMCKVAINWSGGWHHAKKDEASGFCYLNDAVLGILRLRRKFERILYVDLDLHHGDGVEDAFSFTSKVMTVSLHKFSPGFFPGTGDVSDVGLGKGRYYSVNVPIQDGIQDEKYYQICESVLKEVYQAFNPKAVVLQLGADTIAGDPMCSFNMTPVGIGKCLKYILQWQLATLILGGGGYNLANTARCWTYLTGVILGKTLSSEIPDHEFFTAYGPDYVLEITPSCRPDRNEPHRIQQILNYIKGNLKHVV
Put plainly: HDAC in vitro inhibition assay. The class given is biochemical.

The test system of another data set is zebrafish embryos. Conditions: cited from earlier work.
A further data set concerns the target MMP-14 (Homo sapiens, UniProt P50281). Description: MMP in vitro inhibition assay, MMP-14. The class given is biochemical.
The target in the next data set is T3, MMP-7 (Homo sapiens, UniProt P09237).
T3 sequence (P09237 95-267): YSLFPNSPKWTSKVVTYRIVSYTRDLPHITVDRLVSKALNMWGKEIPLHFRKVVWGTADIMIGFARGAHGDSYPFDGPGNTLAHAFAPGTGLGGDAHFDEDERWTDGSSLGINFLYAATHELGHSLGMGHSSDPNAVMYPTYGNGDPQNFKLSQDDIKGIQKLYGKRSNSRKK
Put plainly: MMP in vitro inhibition assay, MMP-7. The class given is biochemical.

The test system of a further data set is HEK293. Conditions: at 100 μM; cited from earlier work.
The target in another data set is T4, MMP-1 (Homo sapiens, UniProt P03956).
T4 sequence (P03956 100-469): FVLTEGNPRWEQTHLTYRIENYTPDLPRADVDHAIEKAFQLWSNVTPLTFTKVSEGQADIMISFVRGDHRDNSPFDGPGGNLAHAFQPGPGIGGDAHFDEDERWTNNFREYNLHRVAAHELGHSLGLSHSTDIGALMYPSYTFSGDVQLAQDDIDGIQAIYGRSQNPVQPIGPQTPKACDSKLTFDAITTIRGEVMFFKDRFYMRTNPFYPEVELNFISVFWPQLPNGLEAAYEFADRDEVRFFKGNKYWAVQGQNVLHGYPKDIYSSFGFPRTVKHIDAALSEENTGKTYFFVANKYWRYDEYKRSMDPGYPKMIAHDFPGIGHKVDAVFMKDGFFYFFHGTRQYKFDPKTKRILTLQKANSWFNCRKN
Put plainly: MMP in vitro inhibition assay, MMP-1. The class given is biochemical.

The target in the next data set is MMP-3 (Homo sapiens, UniProt P08254). Description: MMP in vitro inhibition assay, MMP-3. The class given is biochemical.
Chain of MMP-3 (P08254 100-477): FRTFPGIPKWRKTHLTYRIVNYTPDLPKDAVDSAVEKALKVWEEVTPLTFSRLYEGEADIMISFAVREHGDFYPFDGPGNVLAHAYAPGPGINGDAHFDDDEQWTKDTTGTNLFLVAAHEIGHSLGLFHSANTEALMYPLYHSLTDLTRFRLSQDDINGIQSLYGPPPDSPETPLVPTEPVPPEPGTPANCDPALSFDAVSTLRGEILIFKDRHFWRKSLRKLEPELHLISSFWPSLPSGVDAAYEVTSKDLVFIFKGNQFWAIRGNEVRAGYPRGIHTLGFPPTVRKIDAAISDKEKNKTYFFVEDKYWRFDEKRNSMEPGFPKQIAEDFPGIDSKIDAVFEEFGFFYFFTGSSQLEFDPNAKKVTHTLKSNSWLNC
The target of another data set is MMP-8 (Homo sapiens, UniProt P22894). Description: MMP in vitro inhibition assay, MMP-8. The class given is biochemical.
Chain of MMP-8 (P22894 101-467): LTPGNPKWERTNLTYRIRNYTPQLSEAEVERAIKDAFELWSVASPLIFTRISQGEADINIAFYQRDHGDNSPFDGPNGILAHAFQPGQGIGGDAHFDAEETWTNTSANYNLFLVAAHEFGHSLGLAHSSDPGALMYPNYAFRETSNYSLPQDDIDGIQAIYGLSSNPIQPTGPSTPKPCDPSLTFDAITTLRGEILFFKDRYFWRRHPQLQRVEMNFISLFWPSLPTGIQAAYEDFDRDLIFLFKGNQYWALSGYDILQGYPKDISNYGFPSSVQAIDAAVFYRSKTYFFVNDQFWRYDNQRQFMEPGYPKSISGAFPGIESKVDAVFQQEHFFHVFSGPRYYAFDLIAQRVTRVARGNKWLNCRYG
In data set [2] the test system is Galleria mellonella larvae infection model. Conditions: cited from earlier work.
The test system of another data set is HepG2. Particulars: at 100 μM; cited from earlier work.
A further data set addresses HDAC-3 (Homo sapiens, UniProt O15379). The class given is biochemical.

The term inhibition denotes the relative decrease from the control value, in per cent.

Chain of HDAC-3 (O15379 whole entry): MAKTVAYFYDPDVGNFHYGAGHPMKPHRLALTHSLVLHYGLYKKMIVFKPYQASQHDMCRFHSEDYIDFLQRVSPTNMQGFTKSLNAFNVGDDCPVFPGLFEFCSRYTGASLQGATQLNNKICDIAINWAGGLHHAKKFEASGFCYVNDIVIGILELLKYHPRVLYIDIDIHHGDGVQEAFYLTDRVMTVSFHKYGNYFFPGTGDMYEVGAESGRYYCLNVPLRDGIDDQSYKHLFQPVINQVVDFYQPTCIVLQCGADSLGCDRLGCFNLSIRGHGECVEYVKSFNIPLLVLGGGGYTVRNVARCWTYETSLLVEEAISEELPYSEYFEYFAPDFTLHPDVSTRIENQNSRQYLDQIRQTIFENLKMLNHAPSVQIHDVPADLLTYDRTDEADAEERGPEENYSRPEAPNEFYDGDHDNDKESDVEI
Chain of HDAC-3 (Q9Y618 395-489 partner limits assumed): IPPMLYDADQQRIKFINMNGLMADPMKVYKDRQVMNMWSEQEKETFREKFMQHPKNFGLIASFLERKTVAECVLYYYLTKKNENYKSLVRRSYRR

For the molecule `CC(=O)c1ccc(NC(=O)CS)cc1` [Compound 28], the ColH inhibitory potency entry in the data set with collagenase H (ColH) is given as “nanomolar”.

Take `C[C@@H](O)[C@H]1C(=O)N2C(C(=O)O)=C(SCCNC=N)C[C@H]12` [imipenem]: the “Growth of imipenem-treated bacteria vs imipenem-free control after 24 hours” value in [1] is on record as “no relevant differences”.

Take `O=C(CS)Nc1ccccc1Cl` [Compound 26]: the ColH inhibitory activity entry in the data set with collagenase H (ColH) is listed as “micromolar activities”.

`O=C(CS)Nc1ccc(Cl)c(Cl)c1` [Compound 1]: the “inhibition at 100 μM, MMP-2” value at MMP-2 (100 μM) is reported as “no inhibition”. Besides, the inhibition at 100 µM on MMP-2 (read-out: inhibition at 100 μM, MMP-2) is not above 10%; on MMP-14 (read-out: inhibition at 100 μM, MMP-14), not above 10%; on MMP-7 (read-out: inhibition at 100 μM, MMP-7) it was not above 10%; at MMP-1 (read-out: inhibition at 100 μM, MMP-1), not above 10%; at MMP-3 (read-out: inhibition at 100 μM, MMP-3), not above 10%; at MMP-8 (read-out: inhibition at 100 μM, MMP-8), not above 10%. The “cytotoxicity against A549” value in the data set on A549 is listed as “did not show any cytotoxicity”. Further, at HDAC-8, the “inhibition at 100 μM, HDAC-8” value is listed as “no inhibition”. The “maximum tolerated concentration (MTC)” value with zebrafish embryos was 10 µM. Further, at MMP-14 (100 μM), the “inhibition at 100 μM, MMP-14” value is on record as “no inhibition”. For the same molecule, the “inhibition at 100 μM, MMP-7” value on MMP-7 (100 μM) is given as “no inhibition”. Further, the “cytotoxicity against HEK293” value with HEK293 is on record as “did not show any cytotoxicity”. Moreover, the “inhibition at 100 μM, MMP-1” value at MMP-1 (100 μM) is given as “no inhibition”. Further, on MMP-3 (100 μM), the “inhibition at 100 μM, MMP-3” value is “no inhibition”. Further, at MMP-8 (100 μM), the “inhibition at 100 μM, MMP-8” value is recorded as “no inhibition”. The in vivo efficacy entry in data set [2] is given as “in vivo efficacy”. The “cytotoxicity against HepG2” value in the data set with HepG2 is reported as “did not show any cytotoxicity”. In addition, the “inhibition at 100 μM, HDAC-3” value against HDAC-3 is recorded as “no inhibition”. In addition, the ColH inhibitory activity result with collagenase H (ColH) is listed as “micromolar activities”.
